Tests used:
Type in all cases: cell-based
[1] = test system: ERK phosphorylation in H358 cells; assay: H358 cell ERK phosphorylation inhibition assay (HTRF pERK/total ERK); details: Homo sapiens, NCI-H358, 3 h, 3 h incubation, ratio of pERK/total ERK, read-out: IC50 (nM), inhibitory effects on ERK phosphorylation in H358 cells
Method: The inhibitory effects of the compounds of the present disclosure on ERK phosphorylation in H358 cells were measured. Below is a brief description of the experimental method: H358 cells (ATCC, CRL-5807) were cultured in RPMI1640 medium (Hyclone, SH30809.01) containing 10% fetal bovine serum (Corning, 35-076-CV) (i.e., complete medium). On the first day of the experiment, H358 cells were seeded into a 96-well plate at a density of 25,000 cells/well using complete medium, with 190 μL of cell suspension per well, and the plate was incubated overnight in a 37° C., 5% CO2 cell incubator. On the second day, the test compounds, prepared in complete medium and serially diluted, were added at 10 μL/well. The final concentrations of the compounds were 9 concentration points obtained by a 6-fold serial dilution from 10 μM. A blank control containing 0.5% DMSO was set up. The plate was incubated for 3 h in a 37° C., 5% CO2 cell incubator. After 3 h, the 96-well cell culture plate was removed from the incubator, and the culture medium was pipetted off. PBS (Shanghai BasalMedia Technologies Co., Ltd., B320) was added at 200 μL/well for a single wash. PBS was pipetted off, and lysis buffer (Cisbio, 64KL1FDF) containing a blocking agent (Cisbio, 64KB1AAC) was added at 50 μL/well. The plate was incubated on a shaker for 30 min at room temperature to lyse the cells. After lysis, the lysates were well mixed by pipetting, and 16 μL of lysate was transferred from each well to two HTRF 96-well assay plates (Cisbio, 66PL96100). Subsequently, 4 μL of a premixed phospho-ERK1/2 antibody solution (Cisbio, 64AERPEG) or 4 μL of a premixed total-ERK1/2 antibody solution (Cisbio, 64NRKPEG) was added to each of the plates. The plates were sealed with a plate sealer film, centrifuged for 1 min in a microplate centrifuge, and incubated overnight at room temperature in the dark. On the third day, fluorescence values at an excitation wavelength of 337 nm and emission wavelengths of 665 nm and 620 nm were measured using a PHERAstar multifunctional microplate reader (BMG Labtech, PHERAstar FS). The IC50 values for the inhibitory activity of the compounds were calculated using Graphpad Prism software, based on the compound concentration and the ratio of pERK/total ERK.

MIA PaCa-2 cells = assay: MIA PaCa-2 cell proliferation assay (CellTiter-Glo); details: Homo sapiens, MIA PaCa-2, 72 h, 72 h incubation, read-out: IC50 (nM), inhibitory activity against MIA PaCa-2 cell proliferation
Method: The inhibitory activity of the compounds of the present disclosure against MIA PaCa-2 cell proliferation was measured. Below is a brief description of the experimental method:
MIA PaCa-2 cells (ATCC, CRL-1420) were cultured in DMEM/HIGH GLUCOSE medium (GE, SH30243.01) containing 10% fetal bovine serum (Corning, 35-076-CV) and 2.5% horse serum (Beyotime Biological Tech., C0262) (i.e., complete medium). On the first day of the experiment, MIA PaCa-2 cells were seeded into a 96-well plate at a density of 500 cells/well using complete medium, with 90 µL of cell suspension per well, and the plate was incubated overnight in a 37° C., 5% CO2 cell incubator. On the second day, the test compounds, prepared in complete medium and serially diluted, were added at 10 μL/well. The final concentrations of the compounds were 9 concentration points obtained by a 5-fold serial dilution from 10 μM. A blank control containing 0.5% DMSO was set up. The plate was incubated for 72 h in a 37° C., 5% CO2 cell incubator. On the fifth day, the 96-well cell plate was removed from the incubator, and CellTiter-Glo® Luminescent Cell Viability Assay (Promega, G7573) was added at 50 μL/well. After 10 min of room temperature incubation, luminescence signals were measured using a multifunctional microplate reader (PerkinElmer, EnVision2015). The IC50 values for the inhibitory activity of the compounds were calculated using Graphpad Prism software.

H358 cells = assay: H358 proliferation assay (CellTiter-Glo); details: Homo sapiens, NCI-H358, 120 h, 120 h incubation, read-out: IC50 (nM), inhibitory activity against H358 cell proliferation
Method: The inhibitory activity of the compounds of the present disclosure against H358 cell proliferation was measured. Below is a brief description of the experimental method: H358 cells (ATCC, CRL-5807) were cultured in RPMI1640 medium (Hyclone, SH30809.01) containing 10% fetal bovine serum (Corning, 35-076-CV) (i.e., complete medium). On the first day of the experiment, H358 cells were seeded into a 96-well plate at a density of 1200 cells/well using complete medium, with 100 μL of cell suspension per well, and the plate was incubated overnight in a 37° C., 5% CO2 cell incubator. On the second day, the test compounds, prepared in complete medium and serially diluted, were added at 10 μL/well. The final concentrations of the compounds were 9 concentration points obtained by a 5-fold serial dilution from 10 μM. A blank control containing 0.5% DMSO was set up. The plate was incubated for 120 h in a 37° C., 5% CO2 cell incubator. On the seventh day, the 96-well cell plate was removed from the incubator, and CellTiter-Glo® Luminescent Cell Viability Assay (Promega, G7573) was added at 50 μL/well. After 10 min of room temperature incubation, luminescence signals were measured using a multifunctional microplate reader (PerkinElmer, EnVision® 2105). The IC50 values for the inhibitory activity of the compounds were calculated using Graphpad Prism software.

| SMILES | IC50 [1] | IC50 (MIA PaCa-2 cells) | IC50 (H358 cells) |
| --- | --- | --- | --- |
| C=CC(=O)N1CCN2C(=O)c3cc(F)c(-c4ccc(F)c5sc(N)c(C#N)c45)c4ccn(c34)CC[C@H]2C1 [Example 2, 4-((S)-10-Acryloyl-2-fluoro-14-oxo-8,8a,9,10,11,12-hexahydro-7H,14H-pyrazino[1′,2′:5,6][1,5]diazocino[3,2,1-hi]indol-3-yl)-2-amino-7-fluorobenzo[b]thiophene-3-carbonitrile] | 0.28 nM | 5.87 nM | 10.5 nM |
| C=CC(=O)N1CCN2C(=O)c3cc(F)c(-c4ccc(F)c5sc(N)c(C#N)c45)c4cc(C)n(c34)CC[C@H]2C1 [Example 4, 4-((S)-10-Acryloyl-2-fluoro-5-methyl-14-oxo-8,8a,9,10,11,12-hexahydro-7H,14H-pyrazino[1′,2′:5,6][1,5]diazocino[3,2,1-hi]indol-3-yl)-2-amino-7-fluorobenzo[b]thiophene-3-carbonitrile] | 1.16 nM | 11.2 nM | 13.4 nM |
| C=CC(=O)N1C[C@@H]2CCn3ncc4c(-c5ccc(F)c6sc(N)c(C#N)c56)c(F)cc(c43)C(=O)N2C[C@H]1C [Example 10, 4-((8aS,11R)-10-Acryloyl-2-fluoro-11-methyl-14-oxo-8,8a,9,10,11,12-hexahydro-7H,14H-pyrazino[1′,2′:5,6][1,5]diazocino[3,2,1-hi]indazol-3-yl)-2-amino-7-fluorobenzo[b]thiophene-3-carbonitrile] | 0.15 nM | 0.94 nM | 0.8 nM |

Reference: patent publication US20250122211A1, “NITROGEN-CONTAINING TETRACYCLIC COMPOUND, PREPARATION METHOD THEREFOR, AND MEDICAL USE THEREOF” (Jiangsu Hengrui Pharmaceuticals Co., Ltd., priority 2021, published 2025)
